# Experimental data from patent US20240247024A1, “INHIBITORS OF NICOTINAMIDE N-METHYL TRANSFERASE (NNMT)” (UNIVERSITEIT LEIDEN, priority 2021, published 2024).
# Values joined by “and” are separate entries in the source; they are usually repeats but may differ in a detail not shown here. Equal entries are not always repeated. Where two headings read alike, the source gives them in different places.
# What was measured:
# [1] = system: HSC-2 human oral cancer cell line; test: MTT cell proliferation assay, HSC-2; format: cell-based; conditions: for % of DMSO control at 100 μM, HSC-2, 24 h: 24 h incubation; for % of DMSO control at 100 μM, HSC-2, 48 h: 48 h incubation; for % of DMSO control at 100 μM, HSC-2, 72 h: 72 h incubation
# Protocol: (§1) UROTsa immortalized human urothelium cell line, HSC-2 human oral cancer cell line, T24 human bladder cancer cell line and A549 human lung cancer line were purchased from the American Type Culture Collection (ATCC, Rockville, MD, USA), and cultured in DMEM/F12 medium, supplemented with 10% fetal bovine serum and 50 μg/ml gentamicin, at 37° C. in a humidified 5% CO2 incubator. For each compound tested, powder was dissolved in DMSO at 100 mM concentration. This stock solution was then diluted in culture medium to final concentration values ranging between 1 μM and 100 μM. For each sample, DMSO was kept constant at 0.1% final concentration. The day before starting treatment, cells were seeded in 96-well plates, at a density of 2000 cells/well. Cells were allowed to attach overnight and then incubated with compounds at different final concentrations, or with DMSO only, for 24, 48 and 72 hours. All experiments were performed in triplicate.
# (§2) Cell proliferation was determined using a colorimetric assay with 3-(4,5-dimethylthiazol-2-yl)-2,5-diphenyl tetrazolium bromide (MTT). The MTT assay measures the conversion of MTT to insoluble formazan by dehydrogenase enzymes of the intact mitochondria of living cells. Cell proliferation was evaluated by measuring the conversion of the tetrazolium salt MTT to formazan crystals upon treatment with compounds or DMSO only for 24, 48 and 72 hours. Briefly, cells were incubated for 2 hours at 37° C. with 100 μl fresh culture medium containing 5 μl of MTT reagent (5 mg/ml in PBS). The medium was removed and 200 μl isopropanol were added. The amount of formazan crystals formed correlated directly with the number of viable cells. The reaction product was quantified by measuring the absorbance at 540 nm using an ELISA plate reader. Experiments were repeated three times. Results were expressed as percentage of the control (control equals 100% and corresponds to the absorbance value of each sample at time zero) and presented as mean values±standard deviation of three independent experiments performed in triplicate.
# (§3) Data were analysed using GraphPad Prism software for Windows (GraphPad Software, San Diego, CA). Significant differences between groups were determined using the one-way analysis of variance (ANOVA). A p value <0.05 was considered as statistically significant.
# [2] = system: T24 human bladder cancer cell line; test: MTT cell proliferation assay, T24; format: cell-based; conditions: for % of DMSO control at 100 μM, T24, 24 h: 24 h incubation; for % of DMSO control at 100 μM, T24, 48 h: 48 h incubation; for % of DMSO control at 100 μM, T24, 72 h: 72 h incubation
# Protocol: as §1, §2, §3
# [3] = system: A549 human lung cancer line; test: MTT cell proliferation assay, A549; format: cell-based; conditions: for % of DMSO control at 100 μM, A549, 24 h: 24 h incubation; for % of DMSO control at 100 μM, A549, 48 h: 48 h incubation; for % of DMSO control at 100 μM, A549, 72 h: 72 h incubation
# Protocol: as §1, §2, §3
# NNMT = biological target: T1, NNMT (Homo sapiens, UniProt P40261); test: NNMT assay (HILIC-MS/MS, formation of MNA); conditions: NA 200 μM, SAM 8.5 μM
# T1 sequence (P40261 1-264): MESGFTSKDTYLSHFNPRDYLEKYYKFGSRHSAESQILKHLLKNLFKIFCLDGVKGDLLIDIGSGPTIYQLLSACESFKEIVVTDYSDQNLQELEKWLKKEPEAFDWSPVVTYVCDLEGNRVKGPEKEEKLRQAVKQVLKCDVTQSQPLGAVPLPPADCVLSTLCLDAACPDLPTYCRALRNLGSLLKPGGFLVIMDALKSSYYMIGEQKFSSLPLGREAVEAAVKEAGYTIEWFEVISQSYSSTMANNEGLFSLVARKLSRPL
# [4] = read-out: IC50 values, Table 1, alkene linked aromatics, maximum concentration tested 25 μM
# [5] = IC50 values (nM), Table 6, amino acid replacement, maximum concentration tested 25 μM
# [6] = IC50 values (μM), Table 6, amino acid replacement, maximum concentration tested 25 μM
Compound,"% of DMSO control at 100 μM, HSC-2, 24 h [1]","% of DMSO control at 100 μM, HSC-2, 48 h [1]","% of DMSO control at 100 μM, HSC-2, 72 h [1]","% of DMSO control at 100 μM, T24, 24 h [2]","% of DMSO control at 100 μM, T24, 48 h [2]","% of DMSO control at 100 μM, T24, 72 h [2]","% of DMSO control at 100 μM, A549, 24 h [3]","% of DMSO control at 100 μM, A549, 48 h [3]","% of DMSO control at 100 μM, A549, 72 h [3]",further results
CCOC(=O)[C@H](CCN(C/C=C/c1ccc(C#N)cc1)C[C@H]1O[C@@H](n2cnc3c(N)ncnc32)[C@H](O)[C@@H]1O)NC(=O)CC(C)(C)c1c(C)cc(C)cc1OC(C)=O [NB60],79 % of DMSO control,44 % of DMSO control,26 % of DMSO control,100 % of DMSO control,50 % of DMSO control,29 % of DMSO control,100 % of DMSO control,100 % of DMSO control,76 % of DMSO control,
CCCOC(=O)[C@@H](N)CCN(C/C=C/c1ccc(C#N)cc1)C[C@H]1O[C@@H](n2cnc3c(N)ncnc32)[C@H](O)[C@@H]1O [GYZ-579],100 % of DMSO control,57 % of DMSO control,63 % of DMSO control,82 % of DMSO control,71 % of DMSO control,100 % of DMSO control,100 % of DMSO control,100 % of DMSO control,100 % of DMSO control,
CC(C)OC(=O)[C@@H](N)CCN(C/C=C/c1ccc(C#N)cc1)C[C@H]1O[C@@H](n2cnc3c(N)ncnc32)[C@H](O)[C@@H]1O [GYZ-553],100 % of DMSO control,75 % of DMSO control,56 % of DMSO control,100 % of DMSO control,71 % of DMSO control,100 % of DMSO control,100 % of DMSO control,100 % of DMSO control,100 % of DMSO control,
CCOC(=O)[C@@H](N)CCN(C/C=C/c1ccc(C#N)cc1)C[C@H]1O[C@@H](n2cnc3c(N)ncnc32)[C@H](O)[C@@H]1O [GYZ-552],100 % of DMSO control,100 % of DMSO control,73 % of DMSO control,100 % of DMSO control,100 % of DMSO control,100 % of DMSO control,100 % of DMSO control,100 % of DMSO control,100 % of DMSO control,
CC(=O)Oc1cc(C)cc(C)c1C(C)(C)CC(=O)N[C@@H](CCN(C/C=C/c1ccc(C#N)cc1)C[C@H]1O[C@@H](n2cnc3c(N)ncnc32)[C@H](O)[C@@H]1O)C(=O)O [MH128],100 % of DMSO control,100 % of DMSO control,65 % of DMSO control,100 % of DMSO control,83 % of DMSO control,84 % of DMSO control,100 % of DMSO control,100 % of DMSO control,100 % of DMSO control,
N#Cc1ccc(/C=C/CN(CC[C@H](N)C(=O)O)C[C@H]2O[C@@H](n3cnc4c(N)ncnc43)[C@H](O)[C@@H]2O)cc1 [GYZ-319],100 % of DMSO control,53 % of DMSO control,49 % of DMSO control,100 % of DMSO control,79 % of DMSO control,86 % of DMSO control,100 % of DMSO control,74 % of DMSO control,66 % of DMSO control,
COC(=O)[C@H](CCN(C/C=C/c1ccc(C#N)cc1)C[C@H]1O[C@@H](n2cnc3c(N)ncnc32)[C@H](O)[C@@H]1O)NC(=O)CC(C)(C)c1c(C)cc(C)cc1OC(C)=O [GYZ-573],83 % of DMSO control,69 % of DMSO control,39 % of DMSO control,100 % of DMSO control,79 % of DMSO control,62 % of DMSO control,100 % of DMSO control,100 % of DMSO control,100 % of DMSO control,
N#Cc1c(F)c(F)c(/C=C/CN(CC[C@H](N)C(=O)O)C[C@H]2O[C@@H](n3cnc4c(N)ncnc43)[C@H](O)[C@@H]2O)c(F)c1F [MH610],,,,,,,,,,"IC50 (NNMT; IC50 values (nM), Table 1, alkene linked aromatics, maximum concentration tested 25 μM): 7.14 nM; IC50 (NNMT; IC50 values (μM), Table 1, alkene linked aromatics, maximum concentration tested 25 μM): 7 nM"
Nc1ncnc2c1ncn2[C@@H]1O[C@H](CN(C/C=C/c2c(Cl)cccc2Cl)CC[C@H](N)C(=O)O)[C@@H](O)[C@H]1O [GYZ-336],,,,,,,,,,IC50 (NNMT; [4]): > 25000 nM
CC(=O)N(C/C=C/c1ccc(C#N)cc1)C[C@H]1C[C@@H](n2ccc3c(N)ncnc32)[C@H](O)[C@@H]1O [CM037],,,,,,,,,,"IC50 (NNMT; IC50 values (nM), Table 9, compounds CM035 and CM037): 264 nM; IC50 (NNMT; IC50 values (μM), Table 9, compounds CM035 and CM037): 260 nM"
N#Cc1ccc(/C=C/CN(CCNC(=O)C(F)(F)Br)C[C@H]2O[C@@H](n3cnc4c(N)ncnc43)[C@H](O)[C@@H]2O)cc1 [GYZ-706],,,,,,,,,,IC50 (NNMT; [5]): > 25000 nM; IC50 (NNMT; [6]): > 25000 nM
NC(=O)c1cc(/C=C/CN(CC[C@H](N)C(=O)O)C[C@H]2O[C@@H](n3cnc4c(N)ncnc43)[C@H](O)[C@@H]2O)ccc1Br [GYZ-739],,,,,,,,,,IC50 (NNMT; [4]): 7 nM and 6.8 nM
N#Cc1ccc(/C=C/CN(C/C=C/c2ccc(S(=O)(=O)F)cc2)C[C@H]2O[C@@H](n3cnc4c(N)ncnc43)[C@H](O)[C@@H]2O)cc1 [GYZ-743],,,,,,,,,,IC50 (NNMT; [5]): 7780 nM; IC50 (NNMT; [6]): 7780 nM
Nc1ncnc2c1ncn2[C@@H]1O[C@H](CN(C/C=C/c2cccc(C(F)(F)F)c2)CC[C@H](N)C(=O)O)[C@@H](O)[C@H]1O [GYZ-349],,,,,,,,,,IC50 (NNMT; [4]): 164 nM
